{"source": "paper PMC2375353", "about": "“Effective treatment of experimental U-87MG human glioblastoma in nude mice with a targeted cytotoxic bombesin analogue, AN-215” (British Journal of Cancer, 2002)", "test_system": "U-87MG human glioblastoma xenografted into nude mice", "test": "Experiment 2: growth of s.c. U-87MG xenografts, with BN receptor blockade", "assay_type": "in vivo, human tumour in male athymic nude mice", "details": "RC-3095 200 μg i.v. 15 min before AN-215 150 nmol kg^-1", "method": "Human glioblastoma cell line U-87MG was obtained from American Type Culture Collection (Manassas, VA, USA) and cultured as described ([Pinski et al, 1994]). Male athymic (Ncr nu/nu) nude mice, approximately 6-weeks-old on arrival, were obtained from the National Cancer Institute (Frederick Cancer Research and Development Center, Frederick, MD, USA), and housed in laminar air-flow cabinets under pathogen-free conditions with a 12 h light/12 h dark schedule, and fed autoclaved standard chow and water ad libitum. Xenografts were initiated by s.c. injection of 12×10^6 U-87MG cells into the right flanks of five male nude mice. Tumours resulting after 2 weeks were aseptically dissected, mechanically minced, and 3-mm^3 pieces of tumour tissue were transplanted s.c. with a trocar needle. The take rate was 100%. All experiments were performed in accordance with institutional ethical guidelines of animal care and were essentially in agreement with [UKCCCR guidelines (1998)] for the welfare of animals in experimental neoplasia.\nExperiment 2 was started when U-87MG tumours had grown to 70–84 mm^3 in volume. The animals were divided into the following treatment groups: group 1 (10 mice), control, vehicle solution; group 2 (10 mice), analogue AN-215; group 3 (five mice), unconjugated mixture of the cytotoxic radical AN-201 and BN antagonist RC-3095. All compounds were injected i.v. at 150 nmol kg^−1 of BW on days 1, 10, and 17. In addition, one group of tumour-bearing mice received an i.v. injection of 200 μg of BN antagonist RC-3095 15 min before each administration of AN-215 at a dose of 150 nmol kg^−1 of BW on days 1, 10 and 17 as in the case of group 2. The experiment was terminated on day 20 as described above.\nData are expressed as mean±s.e. Differences between mean values were evaluated by two-tailed Student's t-test, P<0.05 being considered significant."}
{"substance": "[D-Tpi^6,Leu^13ψ(CH2NH)Leu^14]BN (6-14) [RC-3095, reference compound]", "values": [{"measurement": "Antitumour effect after BN receptor blockade", "value": "attenuated the antitumour effect of the cytotoxic BN analogue AN-215"}]}
